Test results published in patent US5714491A, “Peptidyl derivatives as metalloproteinase inhibitors” (Celltech Therapeutics Limited, priority 1993, dated 1998).

Experiments:
Collagenase = assay: Enzyme inhibition assay with fluorogenic peptide substrate, collagenase; format: biochemical; conditions: Ki (app) assumed to approximate true Ki
Protocol: (§1) All enzyme assays to determine Ki values were performed using the peptide substrate Dnp-Pro-Leu-Gly-Leu-Trp-Ala-D-Arg-NH2. [M. Sharon Stock and Robert D. Gray, JBC 264, 4277-81, 1989]. The enzymes cleave at the Gly-Leu bond which can be followed fluorimetrically by measuring the increase in Trp fluorescence emission associated with the removal of the quenching dinitrophenol (Dnp) group.
(§2) Essentially, enzyme (e.g. gelatinase, stromelysin, collagenase) at 0.08-2 nM; a range of inhibitor concentrations (0.1-50×Ki) and substrate (approx. 20 μm) are incubated overnight in 0.1M Tris/HCI buffer, pH 7.5, containing 0.1M NaCl, 10 mM CaCl2 and 0.05%. Brij 35 at either room temperature or 37° C. depending on the enzyme. The reaction is stopped by adjusting the pH to 4 using 0.1M sodium acetate buffer and the fluorescence read at an excitation wavelength of 280 nm and emission wavelength of 346 nm.
(§3) Ki values can be established using the equation for tight-binding inhibition: [formula] where VO is the initial rate of reaction in the absence of inhibitor, Vi is the initial rate in the presence of inhibitor, [E] is the total enzyme concentration and [I] the total inhibitor concentration in the reaction mixture.
(§4) For stromelysin and collagenasa, Ki (app) was assumed to approximate to the true Ki as [S]<<Km for the substrate hydrolysis. For gelatinase the Ki was determined by performing the analyses at several substrate concentrations. A plot of Ki (app) vs. [S] then gave the true Ki as the value of the y-axis intercept.

Stromelysin-1 = Stromelysin-1 (Homo sapiens, UniProt P08254); assay: Enzyme inhibition assay with fluorogenic peptide substrate, stromelysin-1; format: biochemical; conditions: Ki (app) assumed to approximate true Ki
Protocol: as §1, §2, §3, §4

Gelatinase-72KD = target: T1, Gelatinase-72KD (Homo sapiens, UniProt P08253); assay: Enzyme inhibition assay with fluorogenic peptide substrate, gelatinase-72KD; format: biochemical; conditions: true Ki from plot of Ki (app) vs. [S]
T1 sequence (P08253 110-660): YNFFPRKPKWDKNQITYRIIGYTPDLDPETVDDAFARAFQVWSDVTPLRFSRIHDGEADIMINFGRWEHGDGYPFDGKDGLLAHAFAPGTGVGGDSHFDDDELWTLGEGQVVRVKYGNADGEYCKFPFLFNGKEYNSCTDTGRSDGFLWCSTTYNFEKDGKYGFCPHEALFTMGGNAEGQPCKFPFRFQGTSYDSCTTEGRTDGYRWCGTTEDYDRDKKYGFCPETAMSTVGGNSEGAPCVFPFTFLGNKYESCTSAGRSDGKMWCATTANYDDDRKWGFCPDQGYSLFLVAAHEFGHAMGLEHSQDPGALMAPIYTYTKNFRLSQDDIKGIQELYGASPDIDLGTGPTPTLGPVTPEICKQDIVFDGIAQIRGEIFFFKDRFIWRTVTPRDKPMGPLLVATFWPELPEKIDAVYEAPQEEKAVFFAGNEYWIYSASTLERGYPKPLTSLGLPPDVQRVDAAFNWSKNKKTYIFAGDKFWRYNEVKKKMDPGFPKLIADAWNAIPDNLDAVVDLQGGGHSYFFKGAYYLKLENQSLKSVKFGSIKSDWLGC
Protocol: as §1, §2, §3, §4

gelatinase A (72K form) = target: T2, gelatinase A (72K form) (Homo sapiens, UniProt P08253); assay: Mouse pleural cavity assay (oral activity); format: in vivo; conditions: administered orally, around 25 μm/Kg
T2 sequence (P08253 110-660): T1 sequence (P08253 110-660)
Protocol: The oral activity of the compounds according to the invention may be determined using the mouse pleural cavity assay described below. This assay measures the ability of compounds of the invention when adminstered orally to inhibit a subsequent inoculation of gelatinase into the mouse pleural cavity.
A 2 ml solution of the test compound (for example around 25 μm/Kg) in an appropriate solvent (e.g. 50% polyethylene glycol (PG)) plus a variable proportion of dimethyl sulphoxide (DMSO) (if required) is administered orally. After an interval of up to 24 hrs, 0.4 ml of a mixture of an equal volume (2.2 ml) of the enzyme gelatinase A (72K form at a concentration of 20 nM) and radiolabelled [^14 C]-gelatin (at an approximate concentration of 10 μM i.e. 500 times molar excess) is injected into the pleural cavity and maintained at […]. […] The resulting TCA precipitate is then separated by centrifugation and radioactivity in each supernatant measured by scintillation counting. Results are expressed as a % inhibition of enzyme activity calculated by comparing the radioactivity measured for each test compound with a control value obtained by performing the same assay in the absence of a gelatinase inhibitor. […]

Chain of Stromelysin-1 (P08254 100-477, species assumed): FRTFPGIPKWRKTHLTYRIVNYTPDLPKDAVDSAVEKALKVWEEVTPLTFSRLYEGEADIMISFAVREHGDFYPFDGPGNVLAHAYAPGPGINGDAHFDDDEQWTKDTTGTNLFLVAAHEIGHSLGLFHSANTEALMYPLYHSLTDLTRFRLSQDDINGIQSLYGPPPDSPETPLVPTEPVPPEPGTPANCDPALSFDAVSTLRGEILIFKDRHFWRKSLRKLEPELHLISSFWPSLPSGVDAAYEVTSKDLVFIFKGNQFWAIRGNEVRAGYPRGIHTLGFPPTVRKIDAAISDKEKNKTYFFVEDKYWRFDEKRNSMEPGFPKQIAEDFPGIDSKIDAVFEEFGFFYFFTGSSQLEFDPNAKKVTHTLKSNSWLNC

Structure (SMILES)	Ki (Collagenase) [nM]	Ki (Stromelysin-1) [nM]	Ki (Gelatinase-72KD) [nM]	% inhibition of enzyme activity (gelatinase A (72K form)) [%]
CNC(=O)[C@H](NC(=O)[C@H](CCCc1ccc(Cl)cc1)CC(=O)NO)C(C)(C)SC [Example 3a), [4-(N-Hydroxyamino)-2(R)-[3-(4-chlorophenyl)propyl]succinyl]-L-[S-(methyl)penicillamine]-N-methylamide]	26.3	5.3	0.005	
CC(C)(S)[C@@H](NC(=O)[C@H](CCCc1ccc(Cl)cc1)CC(=O)NO)C(N)=O [Example 3b), [4-(N-Hydroxyamino)-2(R)-[3-(4-chlorophenyl)propyl]-1-succinyl]-L-penicillamine amide]	122	3.6	0.027	100
CNC(=O)[C@H](NC(=O)[C@H](CCCc1ccc(Cl)cc1)CC(=O)NO)C(C)(C)S(C)(=O)=O [Example 4, {4-(N-Hydroxyamino)-2(R)-[3-(4-chlorophenyl)propyl]succinyl}-L-[S-(methyl)penicillaminesulphone]-N-methylamide]	20.7	5.92	0.005	
